Values quoted from earlier work, collected in patent US20050256097A1, “Pharmaceutical solution formulations containing 17-AAG” (Kosan Biosciences, Inc., priority 2004, published 2005).

SMILES: COC1=C2C[C@@H](C)C[C@H](OC)[C@H](O)[C@@H](C)/C=C(\C)[C@H](OC(N)=O)[C@@H](OC)/C=C\C=C(/C)C(=O)NC(=CC1=O)C2=O [geldanamycin, Geldanamycin]
- water solubility (in words): very poor water solubility

SMILES: C=CCNC1=C2C[C@@H](C)C[C@H](OC)[C@H](O)[C@@H](C)/C=C(\C)[C@H](OC(N)=O)[C@@H](OC)/C=C\C=C(/C)C(=O)NC(=CC1=O)C2=O [Sample 17-AAG, 17-allylamino-17-demethoxygeldanamycin]
- water solubility (in words): very poor water solubility
- water solubility (neutral pH): about 0.1 mg/mL

SMILES: COC1/C=C\C=C(/C)C(=O)NC2=CC(=O)C(NCCN(C)C)=C(C[C@@H](C)C[C@H](OC)[C@H](O)[C@@H](C)/C=C(\C)[C@@H]1OC(N)=O)C2=O (stereo partly shown) [Sample 17-DMAG, 17-(2-dimethylaminoethyl)amino-17-demethoxygeldanamycin]
- water solubility (in words): more soluble
